According to US5587402A, “Regression of mammalian leukemia cell tumors” (priority 1995, dated 1996):

Columns and labels:
[1] = test system: isoprenylation of 21-26 kDa proteins in M600B cells; assay: Protein isoprenylation in M600B human mammary epithelial cells; format: cell-based
[2] = test system: NIH3T3 cells; assay: Inhibition of NIH3T3 cell growth; format: cell-based, mouse; conditions: FIG. 3
Procedure: (§1) NIH3T3 (mouse embryo) cells were obtained from the American Type Culture Collection and were grown in Dulbecco's modified Eagle's medium supplemented with 10% calf serum. M600B immortalized human mammary epithelial cells (Stampfer, M. R., 1985, J. Tissue Culture Methods 9: 107-115) were obtained from Dr. Martha Stampfer and were grown in supplemented HCDB 170 medium (Hammond, et al. (1984) Proc. Natl. Acad. Sci U.S.A. 81: 5435-5439), as described previously (Stampfer, et al. (1985) Proc. Natl. Acad. Sci U.S.A. 82: 2394-2398; Eldridge, et al. (1989) Cancer Res. 49: 4326-4331).
(§2) All cells were maintained in 100-mm dishes at 37° C. in a humidified 5% CO2 atmosphere. Viable cells were distinguished from nonviable cells by counting azure II/methylene blue-stained colonies 10 days after the cells were plated at a density of 100 cells per dish. Trypan blue exclusion was measured by incubating cells for 1 minute with one drop of trypan blue per 10 ml of cells. Viable (colorless) and nonviable (blue) cells were then counted on a hemocytometer.
(§3) Additionally, growth of HT29 (human colon adenocarcinoma) cells was inhibited by 80% by 1 mM perillyl alcohol.

[3] = test system: M600B cells; assay: Inhibition of M600B cell growth; format: cell-based, human; conditions: FIG. 4
Procedure: as §1, §2, §3

[4] = test system: isoprenylation of 21-26 kDa proteins in NIH3T3 (mouse embryo) cells; assay: Protein isoprenylation in NIH3T3 cells (21-26 kDa bands, SDS-PAGE fluorography); format: cell-based
Procedure: NIH3T3 (mouse embryo) cells were obtained from the American Type Culture Collection and were grown in Dulbecco's modified Eagle's medium supplemented with 10% calf serum. […] Because they carried a radioactive label, isoprenylated proteins were visualized by fluorography. As a control, cells were incubated without the monoterpene. […] Whole cell extracts were analyzed by SDS-PAGE on 16-cm×18-cm×0.75-mm gels by the method of Laemmli (supra). […] Gels were stained with Coomassie Brilliant Blue, equilibrated for 20 minutes in Amplify (Amersham Corp.) fluorographic reagent, dried under vacuum at 65° C., and exposed to […] Some fluorograms were analyzed further by densitometry. […] Protein content was measured by the method of Lowry, et al. […] FIG. 1 depicts the structures of these monoterpenes.

[5] = test system: DMBA-induced rat mammary carcinomas; assay: Pair-feeding study: regression and inhibition of DMBA-induced mammary carcinomas in rats; format: in vivo, Wistar-Furth female rats
Procedure: We used Wistar-Furth female rats for in vivo studies. Wistar-Furth female rats were obtained from Harlan Sprague-Dawley, Inc., (Madison, Wis.). […] Rates were provided Teklad Lab blox chow and acidified water ad libitum.
The DMBA was dissolved in a stock solution of 20 mg DMBA/ml sesame oil, heated and allowed to cool to room temperature before administration. DMBA (Eastman Kodak, Rochester, N.Y.) was given as a single gastric intubation of 50 mg DMBA/kg rat body weight.
In the pair-feeding study, a group of 70 mammals was treated with DMBA. Beginning four weeks post-carcinogen administration, mammals were weighed and palpated weekly.
Fresh diets were make every 7-10 days. All mammals were provided fresh diet daily to minimize evaporation of the monoterpenes.
In a pair-feeding study, all palpable mammary tumors were classified as either "primary" tumors (i.e., the first tumor(s) palpated with a minimum diameter of 3 mm) or "secondary" tumors (i.e. a palpable tumor arising after initial diet assignment). […] All carcinogen-exposed mammals not bearing a first palpable tumor by week 15 post-carcinogen were removed from the experiment. Complete regression of a tumor was defined as non-palpability for a minimum of three consecutive weeks. All mammals in the pair-feeding study were followed for a minimum of 10 weeks post-diet assignment for tumor growth or regression at primary tumor sites and all other mammary glands. The rats were necropsied if moribund. Complete necropsies were performed on all rats at the termination of the study.

[6] = test system: p210-transformed FDC-P1 cells; assay: Proliferation of p210 bcr/abl-transformed FDC-P1 myeloid cells; format: cell-based, murine; conditions: up to 800 μM; FIG. 9A
Procedure: (§4) (The p210 bcr/abl oncogene is carried on a helper-free retrovirus referred to as "p210.") FDC-P1 myeloid cells are an immature cell line from myeloid lineage derived from mouse bone marrow (Dexter, TM, J. Exp. Med. 152: 1036-1047, 1980).

[7] = test system: nontransformed FDC-P1 cells; assay: Proliferation of nontransformed FDC-P1 myeloid cells; format: cell-based, murine; conditions: up to 800 μM; FIG. 9A
Procedure: as §4

[8] = test system: mammary, lung, and stomach cancers; conditions: literature; cited from earlier work
[9] = cited from earlier work

C=C(C)[C@@H]1CC=C(C(=O)O)CC1 [Perillic acid, reference compound]
isoprenylation of 21-26 kDa proteins ([1]; 5 mM, FIG. 2): inhibited significantly
inhibition of isoprenylation ([1]; all cell types examined): inhibition of isoprenylation
inhibition of cell growth [2]: significantly inhibited cell growth in a dose-dependent manner
inhibition of cell growth [3]: significantly inhibited cell growth in a dose-dependent manner

C=C(C)[C@H]1CC=C(C)CC1 [limonene, d-Limonene]
intensity of the 21-26-kDa bands ([4]; 0.5 mM or 5 mM, fluorography): dose-responsive decrease in intensity
intensity of the 66-, 46-, and 17-kDa bands ([4]; 0.5 mM or 5 mM, fluorography): not different from that of the control
activity at 500 µM ([4]; Mus musculus, NIH3T3, 0.5 mM, slicing and scintillation counting, as reported in Crowell et al. (own work), read-out: isoprenylation of the 21-26-kDa bands remaining, of the control): ~50%
activity at 5000 µM ([4]; Mus musculus, NIH3T3, 5 mM, slicing and scintillation counting, as reported in Crowell et al. (own work), read-out: isoprenylation of the 21-26-kDa bands remaining, of the control): ~25%
spot at the dye front ([4]; fluorography): reduced with maximal inhibition at 5 mM
intensity of the 21-26 kDa bands ([1]; 5 mM limonene): marked decrease in the intensity of the 21-26 kDa bands
minimal effective concentration ([1]; Homo sapiens, Epithelial cell, dose responsive, read-out: concentration required for significant inhibition of protein isoprenylation): ≥ 1000 µM
number of secondary tumors compared with perillyl alcohol-fed mammals ([5]; 10% limonene diet versus 2.5% perillyl alcohol diet): higher
Time to Regress ([5]; 10% limonene diet, Kaplan-Meier estimate of time when 25% of tumors will have regressed, p < 0.01, pair-fed control 14.5): 3.25 wks
Primary Tumor Regression (tumors regressed / tumors) ([5]; 10% limonene diet, complete regression, p < 0.01 vs controls): 19/28
Primary Tumor Regression (%) ([5]; 10% limonene diet, complete regression, pair-fed control 23%): 68%
Number of Secondary Tumors/Rat ([5]; 10% limonene diet, p < 0.01, pair-fed control 1.92): 1.08
Secondary Tumor Regression (tumors regressed / tumors) ([5]; 10% limonene diet, p < 0.01, pair-fed control 9/48): 17/27
Secondary Tumor Regression (%) ([5]; 10% limonene diet, pair-fed control 19%): 63%
effect on proliferation [6]: no effect
effect on proliferation [7]: no effect
activity against mammary, lung, and stomach cancers [8]: reported to have activity against mammary
toxicity to humans ([9]; at the required usage levels): not toxic to humans
side-effects ([9]; particularly when a large dose is required in a short period): not without some side-effects
